Tested on: AP-1 induced transcriptional activity
Assay: Cellular Transrepressional Assay: AP-1 luciferase reporter in PMA-activated A549 cells
Format: cell-based
Conditions: for Emax: A549, 7 h, read-out: AP-1 Max % inh (Cellular Transrepression Assay)
Procedure: Cellular Transrepressional Assay
To measure the ability of test molecules to inhibit AP-1 induced transcriptional activity we utilized an A549 cell which was stably transfected with a plasmid containing 7× AP-1 DNA binding sites (pAP-1-Luc plasmid, Stratagene Co. La Jolla, Calif.) followed by the gene for luciferase. Cells were activated with 10 ng/ml of […] (PMA) plus or minus test molecules for 7 hours. After 7 hours a luciferase reagent was added to measure luciferase enzymatic activity in the cell. After a 10 minute incubation of luciferase reagent with cells, luminescence was measured in a TopCount luminescence counter. Repression of AP-1 activity was calculated as the percentage decrease in the signal induced by PMA alone. Test molecules were analyzed in the concentration range from 0.1 nM to 40 μM. EC50s were determined by using standard curve fitting methods such as Excel fit (Microsoft Co.).

[1] = Homo sapiens, maximum inhibition, Cellular Transrepression Assay
[2] = Homo sapiens, A549, Cellular Transrepression Assay

SMILES	EC50 [2] [nM]	EC50 (Cellular Transrepression Assay) [nM]	Emax [1] [%]	AP-1 Max % inh (Cellular Transrepression Assay) (maximum inhibition, Cellular Transrepression Assay) [%]
COc1ccc(C(c2ccccc2)C(C)(C)C(=O)Nc2nc(C)cs2)cc1 (centres unmarked) [Example 104, 2,2-dimethyl-3-(4-(methyloxy)phenyl)-N-(4-methyl-1,3-thiazol-2-yl)-3-phenylpropanamide]	–	–	27.3	–
COc1cccc(C(c2ccccc2)C(C)(C)C(=O)Nc2nc(CCc3ccccc3)cs2)c1 (centres unmarked) [Example 97, 2,2-dimethyl-3-(3-(methyloxy)phenyl)-3-phenyl-N-(4-(2-phenylethyl)-,3-thiaozl-2-yl)propanamide]	–	–	26.5	–
CC(C)(C(=O)Nc1nncs1)C(c1ccccc1)c1ccc(N2CCCCC2)cc1 (centres unmarked) [Example 236, 2,2-dimethyl-3-phenyl-3-(4-(1-piperidinyl)phenyl)-N-1,3,4-thiadiazol-2-ylpropanamide]	151	–	38.5	–
CC(C)(C(=O)Nc1nccs1)[C@@H](c1ccccc1)c1ccc(O)c(Br)c1 [Example 350, (3S)-3-(3-bromo-4-hydroxyphenyl)-2,2-dimethyl-3-phenyl-N-1,3-thiazol-2-ylpropanamide]	15	–	81.8	–
Cc1cccc(C(c2ccc(N3CCOCC3)cc2)C(C)(C)C(=O)Nc2nccs2)c1 (centres unmarked) [Example 234, 2,2-dimethyl-3-(3-methylphenyl)-3-(4-(4-morpholinyl)phenyl)-N-1,3-thiazol-2-ylpropanamide]	573	–	39	–
COc1ccccc1C(c1ccccc1)C(C)(C)C(=O)Nc1nc(C)cs1 (centres unmarked) [Example 81, 2,2-dimethyl-3-(2-(methyloxy)phenyl)-N-(4-methyl-1,3-thiazol-2-yl)-3-phenylpropanamide]	–	–	23.1	–
COc1cccc(C(c2ccccc2)C(C)(C)C(=O)Nc2nc(-c3ccccc3)cs2)c1 (centres unmarked) [Example 95, 2,2-dimethyl-3-(3-(methyloxy)phenyl)-3-phenyl-N-(4-phenyl-1,3-thiaozl-2-yl)propanamide]	–	–	36.2	–
Cc1cccc(-c2csc(NC(=O)C(C)(C)C(c3ccccc3)c3ccccc3)n2)c1 [Example 170, 2,2-dimethyl-N-(4-(3-methylphenyl)-1,3-thiazol-2-yl)-3,3-diphenylpropanamide]	–	–	27	–
COc1ccc(C(c2ccccc2)C(C)(C)C(=O)Nc2nc(-c3ccccc3)cs2)cc1 (centres unmarked) [Example 107, 2,2-dimethyl-3-(4-(methyloxy)phenyl)-3-phenyl-N-(4-phenyl-1,3-thiaozl-2-yl)propanamide]	–	–	38.4	–
COc1ccc(C(c2ccc(OC)cc2)C(C)(C)C(=O)Nc2nc(Cc3ccc(-c4ccncc4)cc3)cs2)cc1 [Example 304, 2,2-dimethyl-3,3-bis(4-(methyloxy)phenyl)-N-(4-((4-(4-pyridinyl)phenyl)methyl)-1,3-thiazol-2-yl)propanamide]	19.9	–	74.5	–
COc1cccc(C(c2ccccc2)C(C)(C)C(=O)Nc2ncc(C)s2)c1 (centres unmarked) [Example 93, 2,2-dimethyl-3-(3-(methyloxy)phenyl)-N-(5-methyl-1,3-thiazol-2-yl)-3-phenylpropanamide]	–	–	28.1	–
CCCCOc1ccc(-c2ccc(C(CC(C)C)C(C)(C)C(=O)Nc3nncs3)cc2)cc1 (centres unmarked) [Example 442, 3-(4′-butoxy-4-biphenylyl)-2,2,5-trimethyl-N-1,3,4-thiadiazol-2-ylhexanamide]	11.7	–	22.7	–
CC(C)(C(=O)Nc1nc(CCc2ccccc2)cs1)C(c1ccccc1)c1cccc(O)c1 (centres unmarked) [Example 203, 3-(3-hydroxyphenyl)-2,2-dimethyl-3-phenyl-N-(4-(2-phenylethyl)-1,3-thiazol-2-yl)propanamide]	–	–	35.1	–
CC(C)(C(=O)Nc1nccs1)C(c1ccccc1)c1cccc(O)c1 (centres unmarked) [Example 197, 3-(3-hydroxyphenyl)-2,2-dimethyl-3-phenyl-N-1,3-thiazol-2-ylpropanamide]	–	–	36.3	–
CC(C)(C(=O)Nc1nccs1)[C@@H](c1ccccc1)c1ccc(O)c(C#N)c1 [Example 359, (3S)-3-(3-Cyano-4-hydroxyphenyl)-2,2-dimethyl-3-phenyl-N-1,3-thiazol-2-ylpropanamide]	278	–	65.2	–
Cc1csc(NC(=O)C(C)(C)C(c2ccccc2)c2cccc(O)c2)n1 (centres unmarked) [Example 198, 3-(3-hydroxyphenyl)-2,2-dimethyl-N-(4-methyl-1,3-thiazol-2-yl)-3-phenylpropanamide]	–	–	25.8	–
CC(=O)c1ccc(C(c2ccccc2)C(C)(C)C(=O)Nc2nncs2)cc1 (centres unmarked) [Example 369, 3-(4-acetylphenyl)-2,2-dimethyl-3-phenyl-N-1,3,4-thiadiazol-2-ylpropanamide]	819	–	34.9	–
CCOC(=O)/C(=N/OC)c1csc(NC(=O)C(C)(C)C(c2ccccc2)c2ccccc2)n1 [Example 49, ethyl (2E)-(2-((2,2-dimethyl-3,3-diphenylpropanoyl)amino)-1,3-thiazol-4-yl)((methyloxy)imino)ethanoate]	–	–	20.1	–
COc1cccc(C(c2ccccc2)C(C)(C)C(=O)Nc2nc(C(C)(C)C)cs2)c1 (centres unmarked) [Example 96, N-(4-(1,1-dimethylethyl)-1,3-thiazol-2-yl)-2,2-dimethyl-3-(3-(methyloxy)phenyl)-3-phenylpropanamide]	–	–	37.1	–
CCOC(=O)c1sc(NC(=O)C(C)(C)C(c2ccccc2)c2ccc(O)cc2)nc1C (centres unmarked) [Example 218, ethyl 2-((3-(4-hydroxyphenyl)-2,2-dimethyl-3-phenylpropanoyl)amino)-4-methyl-1,3-thiazole-5-carboxylate]	–	–	38	–
COc1ccccc1C(c1ccccc1)C(C)(C)C(=O)Nc1ncc(C)s1 (centres unmarked) [Example 82, 2,2-dimethyl-3-(2-(methyloxy)phenyl)-N-(5-methyl-1,3-thiazol-2-yl)-3-phenylpropanamide]	–	–	25.9	–

Continued, in another order:

EC50 [2] [nM]	EC50 (Cellular Transrepression Assay) [nM]	SMILES	Emax [1] [%]	AP-1 Max % inh (Cellular Transrepression Assay) (maximum inhibition, Cellular Transrepression Assay) [%]
37	–	CC(C)(C(=O)Nc1nccs1)C(c1ccc(N2CCOCC2)cc1)c1cccc(F)c1 (single isomer, unassigned) [Example 253, 3-(3-fluorophenyl)-2,2-dimethyl-3-(4-(4-morpholinyl)phenyl)-N-1,3-thiazol-2-ylpropanamide]	27.9	–
24.6	–	CC(C)(C(=O)Nc1nncs1)C(c1ccccc1)c1ccc(-c2ccc(OC(F)(F)F)cc2)cc1 (centres unmarked) [Example 405, 2,2-dimethyl-3-phenyl-N-1,3,4-thiadiazol-2-yl-3-(4′-(trifluoromethoxy)-4-biphenylyl)propanamide]	35.2	–
33.3	–	CC(C)(C(=O)Nc1nc(Cc2ccc(-c3ccncc3)cc2)cs1)C(c1ccccc1)c1ccc(F)cc1 (centres unmarked) [Example 302, 3-(4-fluorophenyl)-2,2-dimethyl-3-phenyl-N-(4-((4-(4-pyridinyl)phenyl)methyl)-1,3-thiazol-2-yl)propanamide]	76.8	–
810	–	Cc1ccc(-c2csc(NC(=O)C(C)(C)C(c3ccccc3)c3ccccc3)n2)c2ccccc12 [Example 164, 2,2-dimethyl-N-(4-(4-methyl-1-naphthalenyl)-1,3-thiazol-2-yl)-3,3-diphenylpropanamide]	75.2	–
70	–	CCCc1ccc(-c2ccc(C(CC(C)C)C(C)(C)C(=O)Nc3nccs3)cc2)cc1 (centres unmarked) [Example 398, 2,2,5-trimethyl-3-(4′-propyl-4-biphenylyl)-N-1,3-thiazol-2-ylhexanamide]	28.2	–
13.4	–	CC(C)CC(c1ccc(-c2ccc(OC(C)C)cc2)cc1)C(C)(C)C(=O)Nc1nncs1 (centres unmarked) [Example 395, 2,2,5-trimethyl-3-(4′-((1-methylethyl)oxy)-4-biphenylyl)-N-1,3,4-thiadiazol-2-ylhexanamide]	32.5	–
–	4.06	CC(C)(C(=O)Nc1nncs1)C(c1ccccc1)c1ccc(N2CCOCC2)cc1 (centres unmarked) [Example 260, 2,2-dimethyl-3-(4-(4-morpholinyl)phenyl)-3-phenyl-N-1,3,4-thiadiazol-2-ylpropanamide]	–	35.64
161	–	CC(C)(C(=O)Nc1nccs1)C(c1ccccc1)c1ccc(N2CCOCC2)cc1 (centres unmarked) [Example 224, 2,2-dimethyl-3-(4-(4-morpholinyl)phenyl)-3-phenyl-N-1,3-thiazol-2-ylpropanamide]	33.8	–
894	–	COc1ccc(-c2ccc(C(c3ccccc3)C(C)(C)C(=O)Nc3nncs3)cc2)cc1 (centres unmarked) [Example 378, 2,2-dimethyl-3-(4′-(methyloxy)-4-biphenylyl)-3-phenyl-N-1,3,4-thiadiazol-2-ylpropanamide]	26.2	–
121	–	COc1ccc(-c2ccc(C(c3ccccc3)C(C)(C)C(=O)Nc3nccs3)cc2)cc1 (centres unmarked) [Example 374, 2,2-Dimethyl-3-(4′-(methyloxy)-4-biphenylyl)-3-phenyl-N-1,3-thiazol-2-ylpropanamide]	39.7	–
120	–	CC(C)(C(=O)Nc1nncs1)C(c1ccccc1)c1ccc(O)c(F)c1 (centres unmarked) [Example 348, 3-(3-fluoro-4-hydroxyphenyl)-2,2-dimethyl-3-phenyl-N-1,3,4-thiadiazol-2-ylpropanamide]	54	–
–	35.2	CC(C)(C(=O)Nc1nccs1)C(c1ccccc1)c1ccc(O)c(F)c1 (centres unmarked) [Example 345, 3-(3-fluoro-4-hydroxyphenyl)-2,2-dimethyl-3-phenyl-N-1,3-thiazol-2-ylpropanamide]	68.1	–
10.2	–	CC(C)(C(=O)Nc1nc(Cc2ccc(-c3ccncc3)cc2)cs1)C(c1ccccc1)c1ccc(Cl)cc1 (centres unmarked) [Example 301, 3-(4-chlorophenyl)-2,2-dimethyl-3-phenyl-N-(4-((4-(4-pyridinyl)phenyl)methyl)-1,3-thiazol-2-yl)propanamide]	73.7	–
7.9	–	CC(C)(C(=O)Nc1nncs1)C(c1ccccc1)c1ccc(-c2ccccc2)cc1 (centres unmarked) [Example 402, 3-(4-biphenylyl)-2,2-dimethyl-3-phenyl-N-1,3,4-thiadiazol-2-ylpropanamide]	26.5	–

From patent US7968577B2 (Bristol-Myers Squibb Company, priority 2006, dated 2011)
